Results reported in patent US11224614B2, “Compositions and methods for increasing iron intake in a mammal” (Solvotrin Therapeutics Limited, priority 2014, dated 2022).

Tests used:
[1] = In-vivo gastrointestinal tolerability (modified GSRS, Bristol Stool Chart), cross-over; design: species or system human; conditions: modified GSRS 0-3, Bristol Stool Chart; p=0.02 and p=0.03
Protocol: In a separate study using random, blinded, prospective allocation to beads prepared in accordance with the invention or FeSO4.7H2O in identical size 0 gelatin capsules, in-vivo gastrointesinal tolerability was assessed in a cross-over design. The test articles were taken in the morning after fasting for 10 hours with baseline and 2 hour fasting blood draws. After 2 hours fasting, food was taken as normal and over the following 24 hours, a modified Gastrointestinal Symptom Rating Scale (GSRS) was completed. This rates the following symptoms as 0=none, 1=mild, 2=moderate, 3=severe: • Abdominal pain/cramps • Nausea/vomiting • Abdominal bloating • Borborygmus (abdominal rumbling) • Flatulence/wind
In addition the products were taken on 3 consecutive days and the Bristol Stool Chart was used to assess constipation/diarrhoea. Positive score changes from baseline normality (=0) indicated constipation.

[2] = Simulated intestinal dissolution, pH 6.6 with pancreatin and bile acids; format: physicochemical; conditions: pH 6.6 over 1 hour, FIG. 5
Protocol: A solution of iron (II) sulfate in water (10 mM) was serially diluted using pH 1.8 KCl buffer. Aliquots (100 μl) of the diluted solutions were added to a 96-well plate containing 100 μl of 1,10-phenanthroline (5 mM). The plate was read at 490 nm on a multiwall plate reader in order to construct a calibration curve. Dissolution samples were diluted ten-fold typically at pH 1.6 into phenanthroline (5 mM) and the samples read rapidly under N2 blanketing.
A 50 mg quantity of beads was transferred to a vial containing 10M HCl (10 ml) and left overnight at room temperature. The resulting solution was shaken and then a 100 μl aliquot was transferred into 900 μl of 10M HCl. A 100 μl aliquot of the diluted solution was added to a 96-well plate containing 1M sodium thiocyanate (100 μl). Absorbance was measured at 450 nm on a multiwell plate reader. The concentration of the iron III was estimated by reference to a series of iron III standard solutions.
An accurately weighed sample (approximately 50 mg) of microbeads was transferred into a three necked vessel into which had been placed 15 ml pH 6.6 buffers (containing 0.1 M sodium bicarbonate, 10 mg/ml bile acid extract, 1.85 mg/ml pancreatin, adjust to pH 6.6 with 1M HCl) at 37° C. Generally, at 1, 15, 30, 45, 60 and occasionally at 90, 120 min time points, samples were taken for iron (II) and iron (III) measurement. […]

[3] = In-vivo efficacy: randomised double-blind cross-over, serum iron over 0-6 hours in fasting subjects; conditions: primary endpoint, p=0.017
Protocol: We evaluated the formulation in a randomised, double-blind, controlled with a 28 day cross-over to obtain a minimum of 6 paired evaluable healthy subjects with serum ferritin <100 ng/mL for comparison of the invention versus FeSO4.
In the analyses, comparisons between groups were conducted using paired sample t-tests for continuous variables and Wilcoxon's Rank Order tests for non-normal distributions. Shapiro-Wilks tests for normality were used to confirm assumptions that primary and secondary endpoints in the study population come from a normal distribution. If assumptions of normality were not possible, log-transformation was used or Wilcoxon's Rank Order tests were applied.
Subjects returned to the study site (within two weeks of Visit 1) for the first intervention day (Visit 2), after fasting since 10 pm the previous night. Subjects were pre-randomised into one of the two treatment groups with a washout period of four weeks between treatment phases: • Group 1: beads prepared in accordance with the invention, followed by FeSO4 • Group 2: FeSO4, followed by beads prepared in accordance with the invention
A blood sample was collected immediately after drinking the supplement and at 2 hours, 4 hours and 6 hours after dosing. […] Ferritin and haemoglobin were also assessed. […]

Substance: ferrous sulfate [FeSO4]
- symptoms scores for abdominal pain/cramps, nausea, flatulence and constipation [1]: Significantly higher symptoms scores
- iron II and total iron (ferrous and ferric) profile in dissolution [2]: undergoes oxidation and precipitates as ferric hydroxides
- serum iron Trough to Peak Differential (TPD) over 0-6 hours, median [3]: 9.7 µmol/L
